For three molecules, IC50 and GI50 results are on record in patent US20260365670A1, “EGFR INHIBITORS AND USES THEREOF” (DIZAL (JIANGSU) PHARMACEUTICAL CO., LTD., priority 2022, published 2026).

Read-outs that look alike come from different tables or passages of the source. Some results are limits rather than exact numbers.

Assay [1] has as its target T1, EGFR[T790M/C797S/d746-750] (Homo sapiens, UniProt P00533, C797S/DEL746-750/T790M).
T1 construct: purchased Carna Bio
The assay can be described thus: Inhibition of EGFR[T790M/C797S/d746-750] biochemical enzymatic activity (HTRF). Put shortly:
(§1)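 Recombinant kinases phosphorylated 1 μM biotinylated TK substrate with 1 mM ATP in buffer with 5 mM MgCl2, 1 mM MnCl2, 0.01% CHAPS, 1 mM DTT, 0.5% DMSO. Reaction ran 1 h at room temperature, stopped with EDTA-containing detection mix. HTRF 665/615 nm ratio gave IC50 via four-parameter logistic fit.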
(In TR-FRET formats the signal depends on donor and acceptor labels being close together.)

For assay [2], the system named is PC-9. The assay can be described thus: Cell proliferation assay, PC-9 cells (CellTiter-Glo, 72 hours). Type of assay: cell-based. To be noted: PC9 cells, read-out: GI50 PC9. In a few lines: (§2)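 Cells are exposed to graded compound concentrations after overnight plating, using 500 PC-9 or 5000 Ba/F3 per well. Baseline-subtracted viability is compared with vehicle to give percent proliferation, then GI50.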
In general terms: Cellular ATP, detected with luciferase, serves as a proxy for viable cell number.

In assay [3] the target is T2, EGFR (d746-750 C797S) (Homo sapiens, UniProt P00533, C797S/DEL746-750).
T2 construct: purchased signalchem
Put plainly: Inhibition of EGFR (d746-750 C797S) biochemical enzymatic activity (HTRF). The conditions noted are these: 1 mM ATP. In a few lines: as §1

The target of assay [4] is T3, EGFR[T790M/C797S/L858R] (Homo sapiens, UniProt P00533, C797S/L858R/T790M).
T3 construct: purchased Carna Bio
Put plainly: Inhibition of EGFR[T790M/C797S/L858R] biochemical enzymatic activity (HTRF). To be noted: 1 mM ATP. In a few lines:
as §1

The target in assay [5] is T4, EGFR L858R/T790M (Homo sapiens, UniProt P00533, L858R/T790M).
T4 construct: purchased Carna Bio
T4 sequence (P00533 25-1210 T790M/L858R): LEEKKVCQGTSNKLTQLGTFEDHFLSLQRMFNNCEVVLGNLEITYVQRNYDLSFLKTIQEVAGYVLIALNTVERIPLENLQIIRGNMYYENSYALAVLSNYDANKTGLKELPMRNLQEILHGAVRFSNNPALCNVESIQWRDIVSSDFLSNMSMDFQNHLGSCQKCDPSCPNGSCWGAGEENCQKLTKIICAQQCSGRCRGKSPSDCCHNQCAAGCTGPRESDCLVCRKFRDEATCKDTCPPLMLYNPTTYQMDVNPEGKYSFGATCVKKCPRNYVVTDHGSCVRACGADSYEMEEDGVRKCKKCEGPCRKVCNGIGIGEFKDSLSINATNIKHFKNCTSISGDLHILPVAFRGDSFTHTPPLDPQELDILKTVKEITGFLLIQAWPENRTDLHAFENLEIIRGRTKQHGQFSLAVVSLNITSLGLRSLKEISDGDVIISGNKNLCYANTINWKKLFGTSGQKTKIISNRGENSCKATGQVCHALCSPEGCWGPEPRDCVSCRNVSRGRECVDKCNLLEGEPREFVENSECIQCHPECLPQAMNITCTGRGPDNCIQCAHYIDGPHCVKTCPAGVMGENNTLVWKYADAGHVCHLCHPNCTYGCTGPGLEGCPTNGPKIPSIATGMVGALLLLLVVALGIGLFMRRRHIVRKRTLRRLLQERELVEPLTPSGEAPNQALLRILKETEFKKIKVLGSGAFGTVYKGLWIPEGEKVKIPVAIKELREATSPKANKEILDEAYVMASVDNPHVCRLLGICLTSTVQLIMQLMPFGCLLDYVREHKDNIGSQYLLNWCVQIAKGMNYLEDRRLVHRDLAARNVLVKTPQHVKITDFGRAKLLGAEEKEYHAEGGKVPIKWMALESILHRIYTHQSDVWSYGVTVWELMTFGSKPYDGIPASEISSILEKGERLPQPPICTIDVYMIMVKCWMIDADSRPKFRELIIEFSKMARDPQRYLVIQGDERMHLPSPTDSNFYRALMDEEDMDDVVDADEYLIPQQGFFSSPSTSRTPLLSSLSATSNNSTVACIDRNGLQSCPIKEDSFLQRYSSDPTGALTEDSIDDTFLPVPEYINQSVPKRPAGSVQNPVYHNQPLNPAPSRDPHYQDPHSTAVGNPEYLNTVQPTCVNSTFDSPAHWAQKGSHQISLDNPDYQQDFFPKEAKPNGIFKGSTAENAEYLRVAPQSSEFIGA
Put plainly: Inhibition of EGFR L858R/T790M biochemical enzymatic activity (HTRF). To be noted: 1 mM ATP. Put shortly:
as §1

In assay [6] the test system is Ba/F3 cells expressing EGFR mutations. Put plainly: Cell proliferation assay, Ba/F3 cells expressing EGFR mutations (CellTiter-Glo, 72 hours). Type of assay: cell-based. Put shortly:
as §2

The target in assay [7] is T5, EGFR (C797S L858R) (Homo sapiens, UniProt P00533, C797S/L858R).
T5 construct: purchased signalchem
T5 sequence (P00533 25-1210 C797S/L858R): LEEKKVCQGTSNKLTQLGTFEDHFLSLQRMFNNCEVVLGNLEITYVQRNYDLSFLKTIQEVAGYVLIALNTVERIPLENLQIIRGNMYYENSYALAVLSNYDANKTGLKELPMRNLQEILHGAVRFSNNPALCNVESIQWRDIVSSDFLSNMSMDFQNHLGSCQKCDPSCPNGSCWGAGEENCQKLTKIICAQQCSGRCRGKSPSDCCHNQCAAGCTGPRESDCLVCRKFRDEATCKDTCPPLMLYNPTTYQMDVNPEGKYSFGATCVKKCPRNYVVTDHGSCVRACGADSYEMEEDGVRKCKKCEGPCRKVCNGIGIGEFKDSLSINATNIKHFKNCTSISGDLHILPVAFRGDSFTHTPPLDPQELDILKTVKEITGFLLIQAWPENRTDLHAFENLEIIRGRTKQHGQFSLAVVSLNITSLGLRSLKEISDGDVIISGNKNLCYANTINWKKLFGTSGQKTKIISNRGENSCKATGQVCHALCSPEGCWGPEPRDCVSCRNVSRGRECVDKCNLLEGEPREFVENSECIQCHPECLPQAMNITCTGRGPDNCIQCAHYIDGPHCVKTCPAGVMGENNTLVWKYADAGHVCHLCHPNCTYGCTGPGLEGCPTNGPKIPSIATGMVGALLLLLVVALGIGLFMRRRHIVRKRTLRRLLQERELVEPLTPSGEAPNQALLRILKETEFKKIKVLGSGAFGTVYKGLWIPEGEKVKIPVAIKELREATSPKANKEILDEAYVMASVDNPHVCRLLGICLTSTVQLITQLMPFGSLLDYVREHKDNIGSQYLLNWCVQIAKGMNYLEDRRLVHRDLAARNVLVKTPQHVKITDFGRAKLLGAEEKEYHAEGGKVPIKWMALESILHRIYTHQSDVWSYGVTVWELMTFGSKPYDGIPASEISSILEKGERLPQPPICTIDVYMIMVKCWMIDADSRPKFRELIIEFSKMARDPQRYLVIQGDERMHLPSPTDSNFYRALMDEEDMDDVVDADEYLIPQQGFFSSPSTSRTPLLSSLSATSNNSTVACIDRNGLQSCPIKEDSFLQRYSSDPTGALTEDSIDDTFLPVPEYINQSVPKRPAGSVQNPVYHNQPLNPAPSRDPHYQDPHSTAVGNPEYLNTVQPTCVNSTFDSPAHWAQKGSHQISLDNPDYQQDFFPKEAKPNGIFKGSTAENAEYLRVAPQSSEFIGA
The assay can be described thus: Inhibition of EGFR (C797S L858R) biochemical enzymatic activity (HTRF). The conditions noted are these: 1 mM ATP. In a few lines: as §1

Assay [8] concerns the target T6, EGFR L858R (Homo sapiens, UniProt P00533, L858R).
T6 construct: purchased Carna Bio
Put plainly: Inhibition of EGFR L858R biochemical enzymatic activity (HTRF). To be noted: 1 mM ATP. In a few lines: as §1

Assay [9] concerns the target T7, EGFR Exon19Del/T790M (Homo sapiens, UniProt P00533, DEL746-750/T790M).
T7 construct: purchased Carna Bio
The assay can be described thus: Inhibition of EGFR Exon19Del/T790M biochemical enzymatic activity (HTRF). To be noted: 1 mM ATP. In a few lines: as §1

For assay [10], the system named is A-431. The assay can be described thus: Cell proliferation assay, A-431 cells (GI50, Table 6). Type of assay: cell-based. The conditions noted are these: Homo sapiens, A-431, A-431 cells.
In assay [11] the target is T8, EGFR Exon19Del (Homo sapiens, UniProt P00533, DEL746-750).
T8 construct: purchased Carna Bio
Put plainly: Inhibition of EGFR Exon19Del biochemical enzymatic activity (HTRF). To be noted: read-out: IC50 @Del19. Put shortly: as §1

Assay [12] has as its target T9, EGFR wild type (Homo sapiens, UniProt P00533).
T9 construct: purchased Carna Bio
The assay can be described thus: Inhibition of EGFR wild type biochemical enzymatic activity (HTRF). The conditions noted are these: 1 mM ATP. In a few lines:
as §1

Setting [13] is: EGFR[T790M/C797S/d746-750], 1 mM ATP, 1 h at room temperature, read-out: IC50 @T790M - C797S - Del19.
Setting [14] is: EGFR (d746-750 C797S), 1 h at room temperature, read-out: IC50 @Del19-C797S.
Where [15] appears, read: EGFR[T790M/C797S/L858R], 1 h at room temperature, read-out: IC50 @T790M- C797S - L858R.
Where [16] appears, read: EGFR L858R/T790M, 1 h at room temperature, read-out: IC50 @L858R-T790M.
The mark [17] stands for this setting: Mus musculus, BaF3, 72 h, BaF3 cells, EGFR DEL19 - C797S, read-out: GI50 DEL19 - C797S/BaF3.
The mark [18] stands for this setting: Mus musculus, BaF3, 72 h, BaF3 cells, EGFR DEL19 - T790-C797S, read-out: GI50 DEL19 - T790-C797S/BaF3.
Where [19] appears, read: Mus musculus, BaF3, 72 h, BaF3 cells, EGFR L858R - C797S, read-out: GI50 L858R - C797S/BaF3.
[20] abbreviates: Mus musculus, BaF3, 72 h, BaF3 cells, EGFR L858R - T790-C797S, read-out: GI50 L858R - T790-C797S/BaF3.
Setting [21] is: Mus musculus, BaF3, 72 h, BaF3 cells, EGFR L858R - T790M, read-out: GI50 L858R - T790M/BaF3.
The mark [22] stands for this setting: Mus musculus, BaF3, 72 h, BaF3 cells, EGFR L858R, read-out: GI50 L858R/BaF3.
Setting [23] is: Mus musculus, BaF3, 72 h, EGFR DEL19 - T790M, read-out: GI50 DEL19 - T790M.
[24] abbreviates: EGFR (C797S L858R), 1 h at room temperature, read-out: IC50 @L858-C797S.
The mark [25] stands for this setting: 1 h at room temperature, read-out: IC50 @L858R.
The mark [26] stands for this setting: EGFR Exon19Del/T790M, 1 h at room temperature, read-out: IC50 @Del19-T790M.
The mark [27] stands for this setting: EGFR Exon19Del, 1 mM ATP, 1 h at room temperature.
Where [28] appears, read: EGFR wild type, 1 h at room temperature, read-out: IC50 @WT.

T7 sequence (P00533 with tags, fused parts or gaps DEL746-750/T790M limits assumed): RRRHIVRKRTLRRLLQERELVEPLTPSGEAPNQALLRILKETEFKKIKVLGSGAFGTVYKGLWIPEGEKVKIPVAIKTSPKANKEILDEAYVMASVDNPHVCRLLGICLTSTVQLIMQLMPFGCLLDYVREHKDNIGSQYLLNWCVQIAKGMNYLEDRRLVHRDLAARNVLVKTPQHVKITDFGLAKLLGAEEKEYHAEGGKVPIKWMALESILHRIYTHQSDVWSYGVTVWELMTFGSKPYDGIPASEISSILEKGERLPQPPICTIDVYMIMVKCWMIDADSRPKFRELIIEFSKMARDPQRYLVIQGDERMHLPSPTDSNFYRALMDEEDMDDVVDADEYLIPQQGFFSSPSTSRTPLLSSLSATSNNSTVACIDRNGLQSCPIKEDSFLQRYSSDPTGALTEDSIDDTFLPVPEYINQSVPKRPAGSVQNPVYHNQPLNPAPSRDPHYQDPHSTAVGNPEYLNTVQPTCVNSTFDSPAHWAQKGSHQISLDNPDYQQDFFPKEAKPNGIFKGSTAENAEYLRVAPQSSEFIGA
T9 sequence (P00533 25-1210): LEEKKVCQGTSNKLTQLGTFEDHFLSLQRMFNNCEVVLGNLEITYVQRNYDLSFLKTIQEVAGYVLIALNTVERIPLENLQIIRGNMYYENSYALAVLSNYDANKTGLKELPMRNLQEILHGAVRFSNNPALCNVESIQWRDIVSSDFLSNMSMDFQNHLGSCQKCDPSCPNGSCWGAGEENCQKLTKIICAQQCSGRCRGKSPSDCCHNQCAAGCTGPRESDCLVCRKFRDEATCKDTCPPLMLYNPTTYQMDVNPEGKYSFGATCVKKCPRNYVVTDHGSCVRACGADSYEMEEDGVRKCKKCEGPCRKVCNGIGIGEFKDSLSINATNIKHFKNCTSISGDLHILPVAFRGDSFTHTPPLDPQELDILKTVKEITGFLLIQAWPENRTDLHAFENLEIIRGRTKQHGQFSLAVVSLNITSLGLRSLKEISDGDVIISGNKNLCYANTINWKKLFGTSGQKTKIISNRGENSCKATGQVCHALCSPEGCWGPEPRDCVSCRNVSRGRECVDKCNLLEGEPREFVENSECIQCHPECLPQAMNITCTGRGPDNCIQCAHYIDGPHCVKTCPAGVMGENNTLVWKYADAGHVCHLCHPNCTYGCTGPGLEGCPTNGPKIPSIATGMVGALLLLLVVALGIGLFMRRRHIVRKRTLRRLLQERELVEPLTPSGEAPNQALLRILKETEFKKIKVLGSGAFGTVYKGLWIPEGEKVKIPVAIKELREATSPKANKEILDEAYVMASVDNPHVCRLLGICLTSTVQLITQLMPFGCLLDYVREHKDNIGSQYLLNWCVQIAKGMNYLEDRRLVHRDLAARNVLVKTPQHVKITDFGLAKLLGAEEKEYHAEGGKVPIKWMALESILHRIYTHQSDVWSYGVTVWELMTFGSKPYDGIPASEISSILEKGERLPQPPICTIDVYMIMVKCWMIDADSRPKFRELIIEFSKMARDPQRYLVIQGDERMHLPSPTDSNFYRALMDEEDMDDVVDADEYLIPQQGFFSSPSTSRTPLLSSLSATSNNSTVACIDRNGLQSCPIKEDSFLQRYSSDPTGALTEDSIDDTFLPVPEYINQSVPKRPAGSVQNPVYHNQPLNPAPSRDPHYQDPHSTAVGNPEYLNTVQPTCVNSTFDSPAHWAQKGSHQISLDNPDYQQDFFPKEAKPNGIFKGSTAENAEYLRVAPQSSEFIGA
T1 sequence (P00533 with tags, fused parts or gaps DEL746-750/T790M/C797S limits assumed): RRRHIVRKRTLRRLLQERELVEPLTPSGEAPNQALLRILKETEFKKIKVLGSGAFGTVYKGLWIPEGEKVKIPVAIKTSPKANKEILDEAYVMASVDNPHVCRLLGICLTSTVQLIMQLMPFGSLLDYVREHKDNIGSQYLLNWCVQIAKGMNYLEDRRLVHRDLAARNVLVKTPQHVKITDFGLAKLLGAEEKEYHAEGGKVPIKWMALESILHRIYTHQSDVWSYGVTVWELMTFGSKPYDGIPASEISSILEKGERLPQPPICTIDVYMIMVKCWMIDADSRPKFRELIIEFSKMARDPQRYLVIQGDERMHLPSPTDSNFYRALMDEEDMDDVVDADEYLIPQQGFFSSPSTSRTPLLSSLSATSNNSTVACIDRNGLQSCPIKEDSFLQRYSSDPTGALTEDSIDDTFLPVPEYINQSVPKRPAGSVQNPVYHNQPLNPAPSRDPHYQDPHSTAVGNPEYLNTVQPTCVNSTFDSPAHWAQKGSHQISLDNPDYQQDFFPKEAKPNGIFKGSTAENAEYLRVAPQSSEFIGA

Usually IC50 stands for the concentration that inhibits the measured activity by half. Take `Cc1cc2cc(n1)-c1cnn(C)c1OCCN1CC3CCC(CC3)(C1)n1c(nc3ccc(N4CC5CN(C)CC5C4)cc31)NC2=O` (stereo not drawn) [Example B34]: the IC50 in assay [1] (setting [13]) came to 5.4 nM; in [3] (setting [14]), 20 nM; in assay [4] (setting [15]), 8.4 nM; in [5] (setting [16]), 16 nM; in assay [7] (setting [24]), 203 nM; in assay [8] (setting [25]), 421 nM. Further, the IC50 in [9] (setting [26]) is 12 nM; in [11] (setting [27]) it was 0.039 µM; in [12] (setting [28]), more than 5000 nM. Besides, the GI50 stood at 0.086 µM in assay [2] (Homo sapiens, PC-9, 72 h); 0.011 µM in [6] (setting [17]); 0.004 µM in assay [6] (setting [18]); 0.083 µM in assay [6] (setting [19]); 0.009 µM in [6] (setting [20]); 0.017 µM in assay [6] (setting [21]). Moreover, the GI50 is 0.064 µM in assay [6] (setting [22]), 0.004 µM in assay [6] (setting [23]) and 4.52 µM in assay [10].

Turning to `Cc1cc2cc(n1)-c1cnn(C)c1OCCN1CC3CCC(C3)(C1)n1c(nc3ccc(N(C)CCCN(C)C)cc31)NC2=O` (single isomer, unassigned) [Example B45B], the IC50 was 1.7 nM in [1] (setting [13]); 2.4 nM in [3] (setting [14]); 1.4 nM in assay [4] (setting [15]); 3.8 nM in assay [5] (setting [16]); 14 nM in assay [7] (setting [24]); 46 nM in [8] (setting [25]). Also, the IC50 in [9] (setting [26]) came to 2.8 nM; in assay [11] (setting [27]) it was 0.0053 µM; in assay [12] (setting [28]) it was 1020 nM. Moreover, the GI50 in assay [2] is 0.01 µM; in assay [6] (BaF3 cells, EGFR DEL19 - C797S, read-out: GI50 DEL19 - C797S/BaF3), 0.002 µM; in [6] (BaF3 cells, EGFR DEL19 - T790-C797S, read-out: GI50 DEL19 - T790-C797S/BaF3), 0.002 µM; in assay [6] (BaF3 cells, EGFR L858R - C797S, read-out: GI50 L858R - C797S/BaF3) it was 0.004 µM; in [6] (BaF3 cells, EGFR L858R - T790-C797S, read-out: GI50 L858R - T790-C797S/BaF3), 0.002 µM; in assay [6] (BaF3 cells, EGFR L858R - T790M, read-out: GI50 L858R - T790M/BaF3) it was 0.002 µM. Also, the GI50 in [6] (BaF3 cells, EGFR L858R, read-out: GI50 L858R/BaF3) was determined as 0.011 µM; in assay [6] (EGFR DEL19 - T790M, read-out: GI50 DEL19 - T790M), 0.002 µM; in [10], 1.68 µM.

Turning to `CN(C)[C@@H]1CCN(c2ccc3nc4n(c3c2)C23CCC(CC2)CN(CCOc2c(cnn2C)-c2cc(cn(C)c2=O)C(=O)N4)C3)C1` [Example A121], the IC50 turned out to be 10 nM in assay [1] (EGFR T790M-C797S-Del19, 1 mM ATP, 1 h, room temperature, read-out: IC50 (nM) @T790M - C797S - Del19); 19 nM in assay [3] (EGFR Del19-C797S, 1 h, room temperature, read-out: IC50 (nM) @Del19-C797S); 154 nM in assay [4] (EGFR T790M-C797S-L858R, 1 h, room temperature, read-out: IC50 (nM) @T790M- C797S - L858R); 477 nM in assay [5] (EGFR L858R-T790M, 1 h, room temperature, read-out: IC50 (nM) @L858R-T790M); 101 nM in assay [7] (EGFR L858-C797S, 1 h, room temperature, read-out: IC50 (nM) @L858-C797S); 167 nM in assay [8] (1 h, room temperature, read-out: IC50 (nM) @L858R). Further, the IC50 in assay [9] (EGFR Del19-T790M, 1 h, room temperature, read-out: IC50 (nM) @Del19-T790M) is 21 nM; in assay [11] (EGFR Del19, 1 mM ATP, 1 h, room temperature) it was 0.025 µM; in assay [12] (EGFR WT, 1 h, room temperature, read-out: IC50 (nM) @WT), more than 5000 nM. The GI50 in assay [2] (Homo sapiens, PC-9, 72 h) was determined as 0.027 µM; in assay [6] (setting [17]), 0.0078 µM; in assay [6] (setting [18]) it was 0.044 µM; in [6] (setting [19]) it was 0.035 µM; in assay [6] (setting [20]), 0.015 µM; in assay [6] (setting [21]) it was 0.061 µM. The GI50 in assay [6] (setting [22]) is 0.012 µM; in [6] (setting [23]) it was 0.025 µM; in assay [10] it was 4.97 µM.
